≈ marks a conversion by molar mass, not a printed value. Where two headings read alike, the source gives them in different places.

The values below come from US6403576B1, “Antifungal and antiparasitic compounds” (priority 1998, dated 2002).

Data set [1] has as its system Leishmania major promastigotes. The conditions noted are these: cited from earlier work.
The conditions of data set [2]: rats; cited from earlier work.
The conditions of data set [3]: in vivo; cited from earlier work.
The subject of data set [4] is Trichomonas vaginalis CDC-085 (ATCC#50143). The data set can be described thus: Trichomonad MIC assay, 96-well, 48 h. The format is cell-based. Here is the method:
(§1) Trichomonad In Vitro and in Vivo Drug Screening Methods.(a) In Vitro: Several strains of T. vaginalis are maintained, covering the spectrum of metronidazole resistance: CDC85 (highly resistant); RU384, RU383, IR78 (moderately resistant); NYH286, RU284, RU393, C1-NIH (sensitive). These strains are routinely cultivated in a non-defined medium incorporating tryptose, yeast extract, maltose and supplemented with 10% horse serum.
(§2) In in vitro drug studies, plant extracts are tested using a 96-well plate assay as described by Meingassner et al., (1978, Antimicrob Agents Chemother 13, 1-3). This method uses only 200 ul of medium/well and thus uses very little plant extract. Results (in triplicate) are presented as “Minimal Inhibitory Concentration” (MIC) the lowest concentration completely blocking growth (Meingassner et al., 1978, supra). This method is also useful in comparing susceptibility of various strains (Meingassner et al., 1978, supra; Yarlett et al., 1987, Mol Biochem Parasitol 24, 255-261). […] Since vaginal O2 tensions are 1/20th to ¼th of atmospheric (Wagner et al., 1978, Fertil Steril 30, 50-53), it is more physiological to do drug sensitivity testing under conditions approaching this.
(§3) The trichomonad screen consists of two human pathogenic Trichomonas vaginalis strains and a livestock parasite Tritrichomonas foetus. The T. vaginalis isolates include a metronidazole sensitive isolate (C1-NIH: ATCC 30001) and a strain highly resistant to metronidazole (CDC-085: ATCC 50143). […] Table 4 details data from the initial group of 19 primary extracts. […] The results to Dec. 31, 1997 appear in Table 5.

Data set [5] concerns Trichomonas vaginalis strain C1-NIH (ATCC #30001). The data set can be described thus: Trichomonad MIC assay, 96-well, 48 h. The format is cell-based. Here is the method:
as §1, §2, §3

In data set [6] the test system is Tritrichomonas foetus KV-1. The data set is described as follows: Trichomonad MIC assay, 96-well, 48 h. The format is cell-based. Here is the method: as §1, §2, §3
For data set [7] the following is noted: cited from earlier work.
For data set [8] the following is noted: 60 mg/day for 3 months; cited from earlier work.
The next data set deals with J-774 A.1 macrophages. The conditions noted are these: 10 uM; not from mevalonate; cited from earlier work.
Another data set deals with Leishmania. The data set can be described thus: Mevalonate as nutritional supplement of in vitro cultures. The conditions noted are these: mevalonate-fed cultures. The class given is cell-based. Here is the method:
To investigate this, we used ^14C-mevalonic acid to determine rate of incorporation by Leishmania (1.0 ng/hr/108 parasites at 25° C, using the respirometric assay. We also looked at mevalonic acid catabolism and found mevalonate is sparingly metabolized to CO2 (less than 1/25 the rate of aspartic acid metabolism, a most rapidly catabolized amino acid, Jackson, et al., 1989, Am J Trop Med Hyg 41, 318-330) even when the promastigotes are maintained under starvation condition for 30 minutes. When mevalonate was added as a nutritional supplement the parasites grew profusely but less rapidly than parallel unsupplemented control cultures. […] Given these preliminary observations: it appears Leishmania (a) incorporate mevalonic acid readily from their environment; (b) catabolism is spared even under starvation conditions; and (c) mevalonic acid can act as a nutritional supplement in vitro.

For `Nc1ccc(S(=O)(=O)c2ccc(N)cc2)cc1` [Dapsone, 4,4′-diaminodiphenyl sulfone], in data set [1], the “reversibility of inhibition by p-aminobenzoate (PABA) folate or thymidine” value is reported as “not reversible”.

In the case of `CC/C(=C(/c1ccc(OCCN(C)C)cc1)c1cccc(O)c1)c1ccccc1` [Droloxifene], in data set [2], the “reduced total serum cholesterol compared to controls” value is listed as 65-70%.

Take `Nc1nc(N)nc(Nc2ccc([As]3SCC(CO)S3)cc2)n1` (stereo not drawn) [Melarsoprol]: the “incidence of cerebral episodes” value in data set [3] is given as 3-5%.

For orientation: MIC means the smallest concentration in the dilution series that meets the test's criterion for growth inhibition. Consider `Cc1ncc([N+](=O)[O-])n1CCO` [Metronidazole], for which the MIC in data set [4] (ATCC50143, Table 4, 48 hrs, metronidazole-resistant strain, read-out: MIC CDC-085 48 hrs) stood at 400 µg/mL (≈ 2340 µM); in data set [4] (ATCC50143, Table 5, new plant extracts, read-out: MIC CDC-085), 400 µg/mL (≈ 2340 µM); in data set [5] (ATCC30001, Table 4, 48 hrs, read-out: MIC C1-HIH 48 hrs), 3 µg/mL (≈ 17.5 µM); in [5] (ATCC30001, Table 5, new plant extracts, read-out: MIC C1-NIH), 3 µg/mL (≈ 17.5 µM); in data set [6] (Table 4, 48 hrs, read-out: MIC KV-1 48 hrs), 4 µg/mL (≈ 23.4 µM); in data set [6] (Table 5, new plant extracts, read-out: MIC KV1), 3 µg/mL (≈ 17.5 µM).

On to `CC(=O)N1CCN(c2ccc(OCC3COC(Cn4ccnc4)(c4ccc(Cl)cc4Cl)O3)cc2)CC1` (stereo not drawn) [ketoconazole], for which the “decreased plasma cholesterol from pretreatment baseline” value in data set [7] (200 mg/day) is 15%; in data set [7] (1200 mg/day) it was 27%.

As to `CC(C)=CCC/C(C)=C/C=C/C(C)=C/C=C/C(C)=C/C=C/C=C(C)/C=C/C=C(C)/C=C/C=C(\C)CCC=C(C)C` [lycopene], in data set [8], the “decrease in plasma LDL cholesterol” value is 14%. Further, the “cholesterol synthesis inhibited from acetate” value in the data set on J-774 A.1 macrophages was 73%.

For `C[C@@](O)(CCO)CC(=O)O` [mevalonic acid], the “logarithmic phase growth longer than unsupplemented cultures” value with Leishmania is 2 fold. Besides, in the data set on Leishmania (unsupplemented ended at 4-5 days), the “duration of logarithmic phase growth” value was over 10 days.
